In patent US20250352555A1, “METHOD OF INCREASING IMMUNE CELL ACTIVATION AND/OR TREATING CANCER USING DIBENZOXAZEPINONES” (VASCULAR THERAPEUTICS PTY LTD, priority 2022, published 2025):

Experiments:
CD68 = assay: Immunohistochemistry of B16F10 tumors (Day 17), CD68; type: in vivo, mouse; settings: B16F10 tumors Day 17, 200 mg/kg i.p.
Excerpt: (§1) Immunohistochemical staining and analyses. Rabbit monoclonal anti-CD3 (cat. no. ab16669; mouse, rat and human reactive), rabbit monoclonal anti-PD-1 (cat. no. ab214421), rabbit monoclonal anti-CD68 (cat. no. ab125212) antibodies were obtained from Abcam, rabbit monoclonal anti-phospho-ERK (Thr^202/Tyr^204) (cat. no. CST4370), rabbit monoclonal total ERK (cat. no. CST4695), antibodies were obtained from Cell Signaling Technology. Rabbit polyclonal anti-PD-L1 (cat. no. PA5-20343) antibody was obtained from ThermoFisher.
(§2) Formalin fixed, paraffin embedded sections were prepared from tumors. Heat-induced epitope retrieval was applied to all deparaffinized sections (4 μm sections on Superfrost slides) with citrate buffer, pH 6.0 for 5 min at 110° C. Sections were blocked with Dual Endogenous Enzyme Block (DAKO, S2003) for 10 min and then with 2% skim milk for 20 min. […] Integrated optical density (IOD) or area of positive staining (red chromagen) was assessed using Image-Pro Plus software (Cybernetics, Bethesda, MD, USA). Positive staining was the average of quantitation in 4-8 fields of view under 20× or 40× objectives.
Immunohistochemical analysis was performed on B16F10 tumors (Day 17) from BT2- or vehicle-treated mice with antibodies to CD68. IOD and tissue area were assessed using Image-Pro Plus and the IOD/μm^2 was determined.

p-JNK = assay: Western blotting time course for p-JNK, Jurkat T cells; type: cell-based, human; settings: Western blot time course
Protocol: Western blotting. Cells were treated with compounds and times indicated and total cell lysates were prepared in RIPA buffer. Lysates (10 μg) were resolved by SDS-PAGE and transferred to Immobilon-P polyvinylidene difluoride (PVDF) membranes (Millipore, USA).
Membranes were blocked with 5% skim milk and incubated with rabbit monoclonal anti-c-Jun (Abcam, cat. no. ab32137; mouse, rat and human reactive) antibody, rabbit monoclonal anti-PD-1 (Abcam, cat. no. ab214421) antibody, mouse monoclonal β-actin antibody (Sigma-Aldrich, cat. no. A5316), anti-phospho-SAPK/JNK (Thr^183/Tyr^185) (98F2) (CST, cat. no. 4671) antibody, anti-phospho-p44/42 MAPK (ERK1/2) (Thr^202/Tyr^204) (D13.14.4E) (CST, cat. no. 4370) antibody, anti-phospho-p38 MAPK (Thr^180/Tyr^182) (D3F9) (CST, cat. no. 4511) antibody, anti-SAPK/JNK antibody (CST, cat. no. 9252), anti-p44/42 MAPK (ERK1/2) (137F5) antibody (CST, cat. no. 4695), anti-p38 MAPK antibody (CST, cat. no. 9212), anti-DUSP8 antibody (Abcam, cat. no. ab198175) or anti-c-MAF (BLR045F) antibody (Abcam, cat. no. ab243901). […] Chemiluminescence was detected using the Western Lightning Chemiluminescence system (Thermo Scientific, USA) and ImageQuant™ LAS 4000 biomolecular imager (GE Healthcare Life Sciences, USA). Band intensity in images generated with the LAS 4000 was quantified using NIH Image J. […]

PD-1 = assay: Immunohistochemistry of B16F10 tumors (Day 17), PD-1; type: in vivo, mouse; settings: B16F10 tumors Day 17, 200 mg/kg i.p., vs vehicle
Excerpt: as §1
as §2, with “min. Slides were incubated with primary antibody for 60 min at room temperature or overnight at 4° C. and then for 10 min with probe of MACH3 Rabbit AP-Polymer Detection solution (Biocare Medical, M3R533 G, H, L).” for “min.”, “objectives. […]” for “objectives.”

CCOC(=O)Nc1ccc2c(c1)C(=O)N(CC)c1ccccc1O2 [BT2, (10-ethyl-11-oxo-10,11-dihydro-dibenzo[b,f][1,4]oxazepin-2-yl)-carbamic acid ethyl ester]
CD68 levels in the tumors (IHC) (CD68): reduced levels of CD68
time to stimulation of JNK phosphorylation (p-JNK): ≤ 1 h
PD-1 levels in tumors (IHC) (PD-1): reduced
